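Exposure lasted 48 hours, with cells grown in 96-well plates and compounds tested at five concentrations. TGI is the concentration that stops growth completely.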
Assays:
Test in all cases: inhibition of tumour cell growth, NCI panel, 48 h
786-0 renal = test system: 786-0 renal
A498 renal = test system: A498 renal
A549 NSCLC = test system: A549 NSCLC
ACHN renal = test system: ACHN renal
BT-549 breast = test system: BT-549 breast
CCRF-CEM leukemia = test system: CCRF-CEM leukemia
COLO 205 colon = test system: COLO 205 colon
DU-145 prostate = test system: DU-145 prostate
HCC-2998 colon = test system: HCC-2998 colon
HCT-116 colon = test system: HCT-116 colon
HCT-15 colon = test system: HCT-15 colon
HL-60(TB) leukemia = test system: HL-60(TB) leukemia
HOP-62 NSCLC = test system: HOP-62 NSCLC
HOP-92 NSCLC = test system: HOP-92 NSCLC
HS 578T breast = test system: HS 578T breast
HT29 colon = test system: HT29 colon
IGROV1 ovarian = test system: IGROV1 ovarian
K-562 leukemia = test system: K-562 leukemia
KM12 colon = test system: KM12 colon
LOX IMVI melanoma = test system: LOX IMVI melanoma
M14 melanoma = test system: M14 melanoma
MALME-3M melanoma = test system: MALME-3M melanoma
MCF7 breast = test system: MCF7 breast
MDA-MB-231 breast = test system: MDA-MB-231 breast
MDA-MB-435 = test system: MDA-MB-435
MDA-N = test system: MDA-N
MOLT-4 leukemia = test system: MOLT-4 leukemia
NCI-H226 lung = test system: NCI-H226 lung
NCI-H23 lung = test system: NCI-H23 lung
NCI-H460 lung = test system: NCI-H460 lung
NCI-H522 lung = test system: NCI-H522 lung
NCI/ADR-RES ovarian = test system: NCI/ADR-RES ovarian
OVCAR-3 ovarian = test system: OVCAR-3 ovarian
OVCAR-4 ovarian = test system: OVCAR-4 ovarian
OVCAR-5 ovarian = test system: OVCAR-5 ovarian
OVCAR-8 ovarian = test system: OVCAR-8 ovarian
PC-3 prostate = test system: PC-3 prostate
RPMI-8226 leukemia = test system: RPMI-8226 leukemia
RXF 393 renal = test system: RXF 393 renal
SF-268 CNS = test system: SF-268 CNS
SF-295 CNS = test system: SF-295 CNS
SF-539 CNS = test system: SF-539 CNS
SK-MEL-28 melanoma = test system: SK-MEL-28 melanoma
SK-MEL-5 melanoma = test system: SK-MEL-5 melanoma
SK-OV-3 ovarian = test system: SK-OV-3 ovarian
SN12C renal = test system: SN12C renal
SNB-19 CNS = test system: SNB-19 CNS
SNB-75 CNS = test system: SNB-75 CNS
SR leukemia = test system: SR leukemia
SW-620 colon = test system: SW-620 colon
T-47D breast = test system: T-47D breast
TK-10 renal = test system: TK-10 renal
U251 CNS = test system: U251 CNS
UO-31 renal = test system: UO-31 renal
CAKI-1 renal = test system: CAKI-1 renal
EKVX NSCLC = test system: EKVX NSCLC
SK-MEL-2 melanoma = test system: SK-MEL-2 melanoma
UACC-257 melanoma = test system: UACC-257 melanoma
UACC-62 melanoma = test system: UACC-62 melanoma

OC[C@H]1CC(c2nn[nH]n2)[C@H](O)[C@@H]1O (stereo partly specified)
TGI (786-0 renal): > 100 µM | TGI (A498 renal): > 100 µM | TGI (A549 NSCLC): > 100 µM | TGI (ACHN renal): > 100 µM | TGI (BT-549 breast): > 100 µM | TGI (CCRF-CEM leukemia): > 100 µM | TGI (COLO 205 colon): > 100 µM | TGI (DU-145 prostate): > 100 µM | TGI (HCC-2998 colon): > 100 µM | TGI (HCT-116 colon): > 100 µM | TGI (HCT-15 colon): > 100 µM | TGI (HL-60(TB) leukemia): > 100 µM | TGI (HOP-62 NSCLC): > 100 µM | TGI (HOP-92 NSCLC): > 100 µM | TGI (HS 578T breast): > 100 µM | TGI (HT29 colon): > 100 µM | TGI (IGROV1 ovarian): > 100 µM | TGI (K-562 leukemia): > 100 µM | TGI (KM12 colon): > 100 µM | TGI (LOX IMVI melanoma): > 100 µM | TGI (M14 melanoma): > 100 µM | TGI (MALME-3M melanoma): > 100 µM | TGI (MCF7 breast): > 100 µM | TGI (MDA-MB-231 breast): > 100 µM | TGI (MDA-MB-435): > 100 µM | TGI (MDA-N): > 100 µM | TGI (MOLT-4 leukemia): > 100 µM | TGI (NCI-H226 lung): > 100 µM | TGI (NCI-H23 lung): > 100 µM | TGI (NCI-H460 lung): > 100 µM | TGI (NCI-H522 lung): > 100 µM | TGI (NCI/ADR-RES ovarian): > 100 µM | TGI (OVCAR-3 ovarian): > 100 µM | TGI (OVCAR-4 ovarian): > 100 µM | TGI (OVCAR-5 ovarian): > 100 µM | TGI (OVCAR-8 ovarian): > 100 µM | TGI (PC-3 prostate): > 100 µM | TGI (RPMI-8226 leukemia): > 100 µM | TGI (RXF 393 renal): > 100 µM | TGI (SF-268 CNS): > 100 µM | TGI (SF-295 CNS): > 100 µM | TGI (SF-539 CNS): > 100 µM | TGI (SK-MEL-28 melanoma): > 100 µM | TGI (SK-MEL-5 melanoma): > 100 µM | TGI (SK-OV-3 ovarian): > 100 µM | TGI (SN12C renal): > 100 µM | TGI (SNB-19 CNS): > 100 µM | TGI (SNB-75 CNS): > 100 µM | TGI (SR leukemia): > 100 µM | TGI (SW-620 colon): > 100 µM | TGI (T-47D breast): > 100 µM | TGI (TK-10 renal): > 100 µM | TGI (U251 CNS): > 100 µM | TGI (UO-31 renal): > 100 µM

c1ccc(-c2cc(-c3cc(-c4ccccn4)[nH]n3)n[nH]2)nc1
TGI (786-0 renal): > 100 µM | TGI (A498 renal): > 100 µM | TGI (A549 NSCLC): > 100 µM | TGI (ACHN renal): > 100 µM | TGI (BT-549 breast): > 100 µM | TGI (CAKI-1 renal): > 100 µM | TGI (COLO 205 colon): > 100 µM | TGI (DU-145 prostate): > 100 µM | TGI (EKVX NSCLC): > 100 µM | TGI (HCC-2998 colon): 83.6 µM | TGI (HCT-116 colon): > 100 µM | TGI (HCT-15 colon): > 100 µM | TGI (HL-60(TB) leukemia): > 100 µM | TGI (HOP-62 NSCLC): > 100 µM | TGI (HOP-92 NSCLC): > 100 µM | TGI (HS 578T breast): > 100 µM | TGI (HT29 colon): > 100 µM | TGI (IGROV1 ovarian): > 100 µM | TGI (K-562 leukemia): > 100 µM | TGI (KM12 colon): > 100 µM | TGI (LOX IMVI melanoma): > 100 µM | TGI (M14 melanoma): > 100 µM | TGI (MALME-3M melanoma): > 100 µM | TGI (MCF7 breast): > 100 µM | TGI (MDA-MB-231 breast): > 100 µM | TGI (MDA-MB-435): > 100 µM | TGI (MDA-N): > 100 µM | TGI (MOLT-4 leukemia): > 100 µM | TGI (NCI-H226 lung): > 100 µM | TGI (NCI-H23 lung): > 100 µM | TGI (NCI-H460 lung): > 100 µM | TGI (NCI-H522 lung): > 100 µM | TGI (NCI/ADR-RES ovarian): > 100 µM | TGI (OVCAR-3 ovarian): > 100 µM | TGI (OVCAR-4 ovarian): > 100 µM | TGI (OVCAR-5 ovarian): > 100 µM | TGI (OVCAR-8 ovarian): > 100 µM | TGI (PC-3 prostate): > 100 µM | TGI (RPMI-8226 leukemia): > 100 µM | TGI (RXF 393 renal): > 100 µM | TGI (SF-268 CNS): > 100 µM | TGI (SF-295 CNS): > 100 µM | TGI (SF-539 CNS): > 100 µM | TGI (SK-MEL-2 melanoma): > 100 µM | TGI (SK-MEL-28 melanoma): > 100 µM | TGI (SK-MEL-5 melanoma): > 100 µM | TGI (SK-OV-3 ovarian): > 100 µM | TGI (SN12C renal): > 100 µM | TGI (SNB-19 CNS): > 100 µM | TGI (SNB-75 CNS): > 100 µM | TGI (SR leukemia): 80.6 µM | TGI (SW-620 colon): > 100 µM | TGI (T-47D breast): > 100 µM | TGI (U251 CNS): > 100 µM | TGI (UACC-257 melanoma): > 100 µM | TGI (UACC-62 melanoma): > 100 µM | TGI (UO-31 renal): 73.2 µM

Source: PubChem BioAssay (NCI)
